Measured values published in US20240051946A1, “TARGETED PROTEIN DEGRADATION OF PARP14 FOR USE IN THERAPY” (Ribon Therapeutics, Inc., priority 2022, published 2024).

Target: T1, catalytic domain of human PARP14 (residues 1611 to 1801) with NanoLuc tag (Homo sapiens, UniProt Q460N5)
T1 construct: expressed in transfected cells; host or cells: HEK-293T cells (ATCC), plasmid pRTX240 in pcDNA3.1(-)
T1 sequence (Q460N5 1611-1801): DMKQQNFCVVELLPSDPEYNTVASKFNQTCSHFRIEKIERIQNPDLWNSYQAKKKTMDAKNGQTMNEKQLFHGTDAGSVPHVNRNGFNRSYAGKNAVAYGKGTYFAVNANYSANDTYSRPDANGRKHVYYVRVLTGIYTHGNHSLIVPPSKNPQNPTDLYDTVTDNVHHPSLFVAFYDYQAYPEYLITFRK
Assay: NanoLuc assay for the degradation of PARP14
Format: cell-based
Conditions: Assay A; NanoLuc-PARP14 overexpressed in HEK-293T cells; 2 hours at 37 degrees; luminescence
Method: The catalytic domain of human PARP14 (residues 1611 to 1801, GenBank Accession No. NM_017554) was inserted into the pcDNA3.1(−) vector. The insert also contained a NanoLuc tag on the N terminus of the PARP14 protein.
Degradation of PARP14 protein was assessed using measurement of the NanoLuc tag as proxy for the PARP14 protein. PARP14 with NanoLuc tag was overexpressed in […] cells (ATCC) using the plasmid described in Table 1. Plasmid DNA was diluted in empty vector DNA then added to 1.163 mL of phenol red free OptiMEM (Thermo Fisher). Plasmid DNA concentrations used in each assay described in Table 1. The plasmid DNA was mixed with 78.5 μL of Fugene HD (Promega) and allowed to incubate 5 minutes.
Next, 1.125 mL were added to 10 million 293T cells in DMEM (Thermo Fisher) supplemented with 10% FBS (VWR) and 1× Glutamax (Gibco). The transfection was incubated for 24 hrs at 37 degrees in an incubator supplemented with 5% CO2. The cells were then trypsinized and brought up in phenol red free OptiMEM media. Transfected HEK-293T cells were diluted to […] and then added to assay plate (Corning 3574) using a Multidrop (Thermo Fisher) to add 40 μL per well of the 384 well plate, resulting in 5,000 cells per well. 40 nL of a dose response curve diluted in DMSO of each test compound was added to the cell plate using a Mosquito (TTP Labtech) and the plate was incubated at 37 degrees for 2 hours. Assay plate was brought to room temperature then 20 μL per well of NanoGlo (Promega) was added to the plate. Luminescence was measured on an Envision (Perkin Elmer).
The average DMSO was calculated from 32 wells containing 0.1% DMSO only in columns 12 and 24 of the assay plate. The % of DMSO values were calculated as described below: […]
The % of DMSO values were plotted as a function of compound concentration and the following 4-parameter fit was applied to derive the DC50 values:
where top, bottom, and Hill Coefficient are allowed to float. Y is the % of DMSO and X is the compound concentration.
DC50 data for the Example compounds is provided below in Table 2 (“+” is <0.1 μM; “++” is ≥0.1 μM and <1 μM; and “+++” is ≥1 μM).

`O=C1CCC(N2C(=O)c3cccc(N4CCN(CC5CCN(C(=O)CN6CCC(SCc7nc8cc(NC9CCCC9)cc(F)c8c(=O)[nH]7)CC6)CC5)CC4)c3C2=O)C(=O)N1` (stereo not shown) [Example 1, 4-(4-((1-(2-(4-(((7-(cyclopentylamino)-5-fluoro-4-oxo-3,4-dihydroquinazolin-2-yl)methyl)thio)piperidin-1-yl)acetyl)piperidin-4-yl)methyl)piperazin-1-yl)-2-(2,6-dioxopiperidin-3-yl)isoindoline-1,3-dione] and `O=C1CCC(N2C(=O)c3cccc(N4CCN(CC5CCN(C(=O)CN6CCC(SCc7nc8cc(OCC9CCOCC9)cc(F)c8c(=O)[nH]7)CC6)CC5)CC4)c3C2=O)C(=O)N1` (stereo not shown) [Example 2, 2-(2,6-dioxopiperidin-3-yl)-4-(4-((1-(2-(4-(((5-fluoro-4-oxo-7-((tetrahydro-2H-pyran-4-yl)methoxy)-3,4-dihydroquinazolin-2-yl)methyl)thio)piperidin-1-yl)acetyl)piperidin-4-yl)methyl)piperazin-1-yl)isoindoline-1,3-dione] cannot be ordered by DC50: less than 100 nM for the first, less than 100 nM for the second.

First: O=C(CN1CCC(SCc2nc3cc(OCC4CCOCC4)cc(F)c3c(=O)[nH]2)CC1)NCCCCCCNC(=O)c1cccc(N2CCC(=O)NC2=O)c1 [Example 3, 3-(2,4-dioxotetrahydropyrimidin-1(2H)-yl)-N-(6-(2-(4-(((5-fluoro-4-oxo-7-((tetrahydro-2H-pyran-4-yl)methoxy)-3,4-dihydroquinazolin-2-yl)methyl)thio)piperidin-1-yl)acetamido)hexyl)benzamide]
Second: O=C(CN1CCC(SCc2nc3cc(OCC4CCOCC4)cc(F)c3c(=O)[nH]2)CC1)NCCCCNC(=O)c1cccc(N2CCC(=O)NC2=O)c1 [Example 4, 3-(2,4-dioxotetrahydropyrimidin-1(2H)-yl)-N-(4-(2-(4-(((5-fluoro-4-oxo-7-((tetrahydro-2H-pyran-4-yl)methoxy)-3,4-dihydroquinazolin-2-yl)methyl)thio)piperidin-1-yl)acetamido)butyl)benzamide]
The DC50 of the first is lower: less than 100 nM for the first, 100 to 1000 nM for the second.

`O=C(CN1CCC(SCc2nc3cc(OCC4CCOCC4)cc(F)c3c(=O)[nH]2)CC1)NCCCCCCN1CCC(c2ccc(NC3CCC(=O)NC3=O)cc2)CC1` (stereo not shown) [Example 5, N-(6-(4-(4-((2,6-dioxopiperidin-3-yl)amino)phenyl)piperidin-1-yl)hexyl)-2-(4-(((5-fluoro-4-oxo-7-((tetrahydro-2H-pyran-4-yl)methoxy)-3,4-dihydroquinazolin-2-yl)methyl)thio)piperidin-1-yl)acetamide] and `O=C(CN1CCC(SCc2nc3cc(OCC4CCOCC4)cc(F)c3c(=O)[nH]2)CC1)NCCCCN1CCC(c2ccc(NC3CCC(=O)NC3=O)cc2)CC1` (stereo not shown) [Example 7, N-(4-(4-(4-((2,6-dioxopiperidin-3-yl)amino)phenyl)piperidin-1-yl)butyl)-2-(4-(((5-fluoro-4-oxo-7-((tetrahydro-2H-pyran-4-yl)methoxy)-3,4-dihydroquinazolin-2-yl)methyl)thio)piperidin-1-yl)acetamide] cannot be ordered by DC50: less than 100 nM for the first, less than 100 nM for the second.

`O=C(CN1CCC(SCc2nc3cc(OCC4CCOCC4)cc(F)c3c(=O)[nH]2)CC1)NCCCCCC(=O)N1CCC(c2ccc(NC3CCC(=O)NC3=O)cc2)CC1` (stereo not shown) [Example 6, N-(6-(4-(4-((2,6-dioxopiperidin-3-yl)amino)phenyl)piperidin-1-yl)-6-oxohexyl)-2-(4-(((5-fluoro-4-oxo-7-((tetrahydro-2H-pyran-4-yl)methoxy)-3,4-dihydroquinazolin-2-yl)methyl)thio)piperidin-1-yl)acetamide] and `O=C(CN1CCC(SCc2nc3cc(OCC4CCOCC4)cc(F)c3c(=O)[nH]2)CC1)NCCCC(=O)N1CCC(c2ccc(NC3CCC(=O)NC3=O)cc2)CC1` (stereo not shown) [Example 8, N-(4-(4-(4-((2,6-dioxopiperidin-3-yl)amino)phenyl)piperidin-1-yl)-4-oxobutyl)-2-(4-(((5-fluoro-4-oxo-7-((tetrahydro-2H-pyran-4-yl)methoxy)-3,4-dihydroquinazolin-2-yl)methyl)thio)piperidin-1-yl)acetamide] cannot be ordered by DC50: less than 100 nM for the first, less than 100 nM for the second.

`O=C(CN1CCC(SCc2nc3cc(OCC4CCOCC4)cc(F)c3c(=O)[nH]2)CC1)NCCN1CCC(c2ccc(NC3CCC(=O)NC3=O)cc2)CC1` (stereo not shown) [Example 9, N-(2-(4-(4-((2,6-dioxopiperidin-3-yl)amino)phenyl)piperidin-1-yl)ethyl)-2-(4-(((5-fluoro-4-oxo-7-((tetrahydro-2H-pyran-4-yl)methoxy)-3,4-dihydroquinazolin-2-yl)methyl)thio)piperidin-1-yl)acetamide] and `O=C(CN1CCC(SCc2nc3cc(OCC4CCOCC4)cc(F)c3c(=O)[nH]2)CC1)NCCN1CCC(c2cccc(NC3CCC(=O)NC3=O)c2)CC1` (stereo not shown) [Example 15, N-(2-(4-(3-((2,6-dioxopiperidin-3-yl)amino)phenyl)piperidin-1-yl)ethyl)-2-(4-(((5-fluoro-4-oxo-7-((tetrahydro-2H-pyran-4-yl)methoxy)-3,4-dihydroquinazolin-2-yl)methyl)thio)piperidin-1-yl)acetamide] cannot be ordered by DC50: less than 100 nM for the first, less than 100 nM for the second.

`O=C(CN1CCC(SCc2nc3cc(OCC4CCOCC4)cc(F)c3c(=O)[nH]2)CC1)NCC(=O)N1CCC(c2ccc(NC3CCC(=O)NC3=O)cc2)CC1` (stereo not shown) [Example 10, N-(2-(4-(4-((2,6-dioxopiperidin-3-yl)amino)phenyl)piperidin-1-yl)-2-oxoethyl)-2-(4-(((5-fluoro-4-oxo-7-((tetrahydro-2H-pyran-4-yl)methoxy)-3,4-dihydroquinazolin-2-yl)methyl)thio)piperidin-1-yl)acetamide] and `O=C(CN1CCC(SCc2nc3cc(OCC4CCOCC4)cc(F)c3c(=O)[nH]2)CC1)NCC(=O)N1CCC(c2cccc(NC3CCC(=O)NC3=O)c2)CC1` (stereo not shown) [Example 11, N-(2-(4-(3-((2,6-dioxopiperidin-3-yl)amino)phenyl)piperidin-1-yl)-2-oxoethyl)-2-(4-(((5-fluoro-4-oxo-7-((tetrahydro-2H-pyran-4-yl)methoxy)-3,4-dihydroquinazolin-2-yl)methyl)thio)piperidin-1-yl)acetamide] cannot be ordered by DC50: less than 100 nM for the first, less than 100 nM for the second.

`O=C(CN1CCC(SCc2nc3cc(OCC4CCOCC4)cc(F)c3c(=O)[nH]2)CC1)NCCCCCC(=O)N1CCC(c2cccc(NC3CCC(=O)NC3=O)c2)CC1` (stereo not shown) [Example 12, N-(6-(4-(3-((2,6-dioxopiperidin-3-yl)amino)phenyl)piperidin-1-yl)-6-oxohexyl)-2-(4-(((5-fluoro-4-oxo-7-((tetrahydro-2H-pyran-4-yl)methoxy)-3,4-dihydroquinazolin-2-yl)methyl)thio)piperidin-1-yl)acetamide] and `O=C(CN1CCC(SCc2nc3cc(OCC4CCOCC4)cc(F)c3c(=O)[nH]2)CC1)NCCCC(=O)N1CCC(c2cccc(NC3CCC(=O)NC3=O)c2)CC1` (stereo not shown) [Example 14, N-(4-(4-(3-((2,6-dioxopiperidin-3-yl)amino)phenyl)piperidin-1-yl)-4-oxobutyl)-2-(4-(((5-fluoro-4-oxo-7-((tetrahydro-2H-pyran-4-yl)methoxy)-3,4-dihydroquinazolin-2-yl)methyl)thio)piperidin-1-yl)acetamide] cannot be ordered by DC50: less than 100 nM for the first, less than 100 nM for the second.

`O=C(CN1CCC(SCc2nc3cc(OCC4CCOCC4)cc(F)c3c(=O)[nH]2)CC1)NCCCCN1CCC(c2cccc(NC3CCC(=O)NC3=O)c2)CC1` (stereo not shown) [Example 13, N-(4-(4-(3-((2,6-dioxopiperidin-3-yl)amino)phenyl)piperidin-1-yl)butyl)-2-(4-(((5-fluoro-4-oxo-7-((tetrahydro-2H-pyran-4-yl)methoxy)-3,4-dihydroquinazolin-2-yl)methyl)thio)piperidin-1-yl)acetamide] and `O=C(CN1CCC(SCc2nc3cc(OCC4CCOCC4)cc(F)c3c(=O)[nH]2)CC1)NCCCCCCN1CCC(c2cccc(NC3CCC(=O)NC3=O)c2)CC1` (stereo not shown) [Example 16, N-(6-(4-(3-((2,6-dioxopiperidin-3-yl)amino)phenyl)piperidin-1-yl)hexyl)-2-(4-(((5-fluoro-4-oxo-7-((tetrahydro-2H-pyran-4-yl)methoxy)-3,4-dihydroquinazolin-2-yl)methyl)thio)piperidin-1-yl)acetamide] cannot be ordered by DC50: less than 100 nM for the first, less than 100 nM for the second.
